The results in this text go back to ChEMBL document CHEMBL1201862, “PubChem BioAssay data set” (2004).

Assay in all cases: NCI tumour cell line growth inhibition, 48 h
In assay [1] the test system is SF-268.
In assay [2] the test system is OVCAR-4.
Assay [3] deals with NCI/ADR-RES.
Assay [4] relates to SF-539.
For assay [5], the system named is A498.
Assay [6] has as its system KM12.
The test system of assay [7] is NCI-H23.
For assay [8], the system named is HT-29.
Assay [9] relates to K562.
In assay [10] the test system is MDA-MB-231.
The test system of assay [11] is UO-31.
For assay [12], the system named is COLO 205.
The subject of assay [13] is NCI-H460.
The subject of assay [14] is CAKI-1.
In assay [15] the test system is SR.
The subject of assay [16] is SF-295.
The test system of assay [17] is IGROV-1.
The test system of assay [18] is SK-MEL-28.
For assay [19], the system named is M14.
Assay [20] relates to ACHN.

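The compound was tested at five concentrations on cells cultured in 96-well plates, with a 48-hour exposure period. GI50: concentration for 50% inhibition of growth.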 The source made the active and inactive calls. Rule as the data show it: active = GI50 up to about 1.1 µM and inactive = higher. Bridge positions count the residues as written; N and C are the ends. Square brackets hold non-standard residues; d marks the D form. Peptide text beside a SMILES is read from it. I, II: the chains in the order shown. * marks the point of attachment. Quinoxaline2carbonyl = O=C(c1cnc2ccccc2n1)*; NMeV = CN[CH](C(=O)O)C(C)C; NMeC = CN[CH](CS)C(=O)O

Turning to `C/C(=C1\C(=O)C(c2ccccc2)N(c2ccccc2)C1=O)c1ccc(Cl)cc1` (stereo not given), the GI50 in assay [1] is 18.7 µM (inactive); in assay [2] it was 21.5 µM (inactive); in assay [3], 29.1 µM (inactive); in assay [4] it was 21.3 µM (inactive); in [5] it was 16.7 µM (inactive); in assay [6] it was 22.2 µM (inactive). The GI50 in [7] was 17.1 µM (inactive); in assay [8], 17.4 µM (inactive); in assay [9], 30.1 µM (inactive); in assay [10] it was 22.3 µM (inactive); in [11] it was 19.8 µM (inactive); in [12], 16.8 µM (inactive). For the same molecule, the GI50 in assay [13] is 29.6 µM (inactive); in assay [14], 24.4 µM (inactive); in assay [15], 20.6 µM (inactive); in assay [16], 20 µM (inactive); in assay [17], 18.7 µM (inactive); in [18], 16.3 µM (inactive). Moreover, the GI50 in [19] is 19.8 µM (inactive); in assay [20], 19.3 µM (inactive).
In the case of `CC(C)(C)OC(=O)N1CCCC1C(=O)NC(c1ccccc1)c1ccccc1` (stereo not given), the GI50 in assay [1], in [2], in assay [3], in assay [4], in assay [5] and in [6] was > 100 µM (inactive) each time. In addition, the GI50 in assay [7], in assay [8], in [9], in assay [10], in assay [11] and in assay [12] was > 100 µM (inactive) in each case. For the same molecule, the GI50 in [13], in assay [14], in assay [15], in assay [16], in assay [17] and in [18] was > 100 µM (inactive) in each case. Besides, the GI50 in assay [19] and in assay [20] was > 100 µM (inactive) in each case.
On to `COC(=O)CCc1ccc2c(c1)[C@H](C(=O)OC)[C@@H](c1ccc(O)cc1)O2`, for which the GI50 was > 100 µM (inactive) in assay [1]; > 100 µM (inactive) in assay [2]; > 100 µM (inactive) in assay [3]; 25.6 µM (inactive) in assay [4]; > 100 µM (inactive) in assay [5]; > 100 µM (inactive) in assay [6]. Further, the GI50 in [7] is 71.6 µM (inactive); in assay [8], > 100 µM (inactive); in assay [9] it was 61.1 µM (inactive); in assay [10], > 100 µM (inactive); in assay [11], > 100 µM (inactive); in assay [12], > 100 µM (inactive). In addition, the GI50 was 58.9 µM (inactive) in [13]; > 100 µM (inactive) in assay [14]; 93.5 µM (inactive) in [15]; > 100 µM (inactive) in [16]; > 100 µM (inactive) in [17]; > 100 µM (inactive) in assay [18]. Also, the GI50 in assay [19] and in [20] was > 100 µM (inactive) throughout.
Turning to `CC1NC(=O)C(NC(=O)c2cnc3ccccc3n2)COC(=O)C(C(C)C)N(C)C(=O)C2CSSCC(C(=O)N(C)C(C(C)C)C(=O)OCC(NC(=O)c3cnc4ccccc4n3)C(=O)NC(C)C(=O)N2C)N(C)C1=O` (stereo not given) (I: Quinoxaline2carbonyl-SA[NMeC][NMeV] / II: Quinoxaline2carbonyl-SA[NMeC][NMeV]; ester I:1-II:C, I:C-II:1; disulfide I:3-II:3; configuration not given here), the GI50 in assay [1], in [2], in assay [3], in assay [4], in [5] and in assay [6] was < 0.01 µM (active) in each case. Further, the GI50 in assay [7], in [8], in assay [9], in assay [10], in assay [11] and in assay [12] was < 0.01 µM (active) throughout. The GI50 in [13] is < 0.01 µM (active); in assay [14], < 0.01 µM (active); in assay [15] it was 0.114 µM (active); in assay [16], < 0.01 µM (active); in assay [17], < 0.01 µM (active); in [18], < 0.01 µM (active). In addition, the GI50 in assay [19] and in assay [20] was < 0.01 µM (active) each time.
For the molecule `C(=N\c1ccc(-c2cc(-c3ccccc3)nc3ccc4ccccc4c23)cc1)/c1ccccc1`, the GI50 in [1] was 7.48 µM (inactive); in assay [2], 2.39 µM (inactive); in assay [3], 28.5 µM (inactive); in assay [4], 16.5 µM (inactive); in assay [5], 26.7 µM (inactive); in assay [6] it was 10.8 µM (inactive). Further, the GI50 in assay [7] is 27.6 µM (inactive); in assay [8], 7.87 µM (inactive); in assay [9], 4.79 µM (inactive); in assay [10], 11.2 µM (inactive); in assay [11] it was 15.9 µM (inactive); in assay [12], 13.6 µM (inactive). Besides, the GI50 in assay [13] was 19.9 µM (inactive); in assay [14], 23.3 µM (inactive); in assay [15], 10.2 µM (inactive); in [16] it was 10.9 µM (inactive); in assay [17], 37.3 µM (inactive); in [18] it was 14.1 µM (inactive). For the same molecule, the GI50 in [19] is 18.1 µM (inactive); in assay [20], 34.6 µM (inactive).
Turning to `CN(Cc1cnc2nc(N)nc(N)c2n1)c1ccc(C(=O)NC(CCC(=O)O)C(=O)O)cc1` (stereo not given), the GI50 is < 0.0298 µM (active) in [1]; > 70.8 µM (inactive) in assay [2]; 0.0249 µM (active) in assay [3]; < 0.014 µM (active) in assay [4]; > 100 µM (inactive) in assay [5]; < 0.0164 µM (active) in assay [6]. In addition, the GI50 in [7] was 0.0792 µM (active); in assay [8], < 0.01 µM (active); in [9] it was < 0.01 µM (active); in assay [10], > 100 µM (inactive); in assay [11], 0.232 µM (active); in assay [12], 0.705 µM (active). Besides, the GI50 in assay [13] is < 0.01 µM (active); in [14], < 0.0157 µM (active); in assay [15], < 0.01 µM (active); in assay [16], < 0.0256 µM (active); in assay [17], 0.082 µM (active); in assay [18] it was 1.25 µM (inactive). Moreover, the GI50 in assay [19] is 0.117 µM (active); in assay [20] it was 0.0204 µM (active).
Turning to `Cc1ccc2[nH]c3c(C)c4cc[n+](C)cc4c(C)c3c2c1`, the GI50 was 0.441 µM (active) in assay [1]; 2.54 µM (inactive) in [2]; 7.93 µM (inactive) in assay [3]; 0.849 µM (active) in assay [4]; 0.891 µM (active) in assay [5]; 0.67 µM (active) in [6]. The GI50 in [7] was 1.23 µM (inactive); in assay [8], 3.33 µM (inactive); in [9], 1.41 µM (inactive); in assay [10], 0.931 µM (active); in assay [11], 5.19 µM (inactive); in assay [12] it was 0.828 µM (active). Further, the GI50 is 3.66 µM (inactive) in assay [13]; 3.59 µM (inactive) in assay [14]; 2.56 µM (inactive) in [15]; 0.462 µM (active) in assay [16]; 1.19 µM (inactive) in [17]; 2.12 µM (inactive) in [18]. For the same molecule, the GI50 is 6.43 µM (inactive) in assay [19] and 4.92 µM (inactive) in assay [20].
